Results reported in patent publication US6521790B2, “Alkynyl amides and their therapeutic applications” (Abbott Laboratories, priority 2000, dated 2003).

Columns and labels:
[1] = system: pentylenetetrazole (PTZ) induced seizures; assay: Latency to and protection against PTZ induced seizures in mice; assay type: in vivo; conditions: compound 1400 μmol/kg intra-peritoneally; for Time to Seizure: average time for PTZ induced seizure, male CD1 mice, PTZ 85 mg/kg s.c., observed 15 minutes; for Number of Mice Protected: number of mice out of ten that did not seize within 15 minutes after PTZ 85 mg/kg s.c.
Protocol: Male CD1 mice (Charles River, Portage, Mich.) weighing 25-35 g were used and during the experiment the mice were housed individually in clear polycarbonate cages for observation. For each experiment, ten mice were each pretreated intra-peritoneally with a compound of the present invention (1400 μmol/kg) prior to pentylenetetrazole (PTZ) (Sigma, St. Louis, Mo.) injection. Seizures were induced by the subcutaneous injection of PTZ (85 mg/kg) just below the nape of the neck. […] The data in Table 1 represents the average time for PTZ induced seizure. […] Control animals were not pretreated with a compound of the present invention but were injected with PTZ (85 mg/kg) subcutaneously.

[2] = system: electrical shock induced seizures; assay: Maximum Electrical Shock Method (MES); assay type: in vivo; conditions: oral, male CD1 mice
Text: Male CD1 mice (Charles River) weighing from 25-35 g were used. Mice were pretreated orally with compounds of the present invention prior to electrical stimulation. Mice were challenge by pulsed electrical stimulation (50 mA, 0.4 s duration, pulse width 0.5 ms, 60 pulses/sec) via corneal electrodes to induce seizure. The stimulation was delivered with an ECT Unit (Ugo Basile #7801). The electrodes of the unit were coated with electrocardiogram electrolyte (Signa Creme, Parker Labs #1708) to ensure good contact with the corneas. Mice were observed post-stimulation for the onset of seizures and death. […] Animals which gave a positive seizure response were observed an additional 30 seconds for death. […] The percent protection from seizures was calculated by dividing the number of protected mice by the total number of mice for the group. The percentage of mice protected from electrical shock induced seizures at doses of 600, 1200, 1800 and 2400 μmole/kg is illustrated in Table 3 for Example 1 and Example 6. The corresponding acid, (2R)-2-propyl-4-hexynoic acid, was also tested for comparison.

[3] = reported in literature (Abbott, Tang, Palaty 1997); cited from earlier work
[4] = one study, compared with valproic acid; cited from earlier work

Question: Which “Time to Seizure” value [1] does the source give for `CC#CC[C@@H](CCC)C(N)=O` [Example 6, (2R)-2-propyl-4-hexynamide] here?
Answer: No Seizures

Question: And the “Number of Mice Protected” value [1]?
Answer: 10

Question: What about the “Percentage of Mice Protected Against Electrical Shock Induced Seizures” value (“Percentage” below) ([2]; dose 600 μmole/kg) of the same molecule?
Answer: 0%

Question: What about the “Percentage” value ([2]; dose 1200 μmole/kg) of the same molecule?
Answer: 20%

Question: And the “Percentage” value ([2]; dose 1800 μmole/kg)?
Answer: 90%

Question: With `CC#CC[C@@H](CCC)C(=O)NCC(N)=O` [Example 1, (2R)-N-(2-amino-2-oxoethyl)-2-propyl-4-hexynamide] as the molecule, how does the “Time to Seizure” value [1] read?
Answer: 675 s

Question: What about the “Number of Mice Protected” value [1] of the same molecule?
Answer: 5

Question: What about the “Percentage” value ([2]; dose 600 μmole/kg) of the same molecule?
Answer: 0%

Question: And the “Percentage” value ([2]; dose 1200 μmole/kg)?
Answer: 70%

Question: And the “Percentage” value ([2]; dose 1800 μmole/kg)?
Answer: 90%

Question: And the “Percentage” value ([2]; dose 2400 μmole/kg)?
Answer: 100%

Question: What does the source list for `CC#CC[C@@H](CCC)C(=O)N[C@H](C)C(N)=O` [Example 5, (2R)-N-[(1R)-2-amino-1-methyl-2-oxoethyl]-2-propyl-4-hexynamide]?
Answer: Time to Seizure [1]: 525 s; Number of Mice Protected [1]: 2

Question: What does the source list for `CC#CC[C@@H](CCC)C(=O)N[C@@H](CC(C)C)C(N)=O` [Example 3, (2R)-N-[(1S)-1-(aminocarbonyl)-3-methylbutyl]-2-propyl-4-hexynamide]?
Answer: Time to Seizure [1]: 575 s; Number of Mice Protected [1]: 4

Question: For `CCCC(F)(CCC)C(=O)O` [2-fluoro-2-propylpentanoic acid], which “Anticonvulsant potency relative to VPA” value [3] is on record?
Answer: less potent than VPA

Question: Which results are given for `CC#CC[C@@H](CCC)C(=O)O` [(2R)-2-propyl-4-hexynoic acid, reference compound]?
Answer: Percentage of Mice Protected Against Electrical Shock Induced Seizures ([2]; dose 600 μmole/kg): 0%; Percentage of Mice Protected Against Electrical Shock Induced Seizures ([2]; dose 1200 μmole/kg): 0%; Percentage of Mice Protected Against Electrical Shock Induced Seizures ([2]; dose 1800 μmole/kg): 0%; Percentage of Mice Protected Against Electrical Shock Induced Seizures ([2]; dose 2400 μmole/kg): 20%

Question: With `CC#CC[C@@H](CCC)C(=O)N[C@H](C(N)=O)C(C)C` [Example 2, (2R)-N-[(1S)-1-(aminocarbonyl)-2-methylpropyl]-2-propyl-4-hexynamide] as the molecule, how does the “Time to Seizure” value [1] read?
Answer: 305 s

Question: And the “Number of Mice Protected” value [1]?
Answer: 1

Question: For `CC#CCC(CCC)C(=O)O` (stereo not shown) [2-propyl-4-hexynoic acid], which “Antiepileptic effect and duration of activity” value [4] is on record?
Answer: effective antiepileptic with a longer duration of activity

Question: For `CC#CC[C@@H](CCC)C(=O)N[C@@H](C)C(N)=O` [Example 4, (2R)-N-[(1S)-2-amino-1-methyl-2-oxoethyl]-2-propyl-4-hexynamide], which “Time to Seizure” value [1] is on record?
Answer: 610 s

Question: And the “Number of Mice Protected” value [1]?
Answer: 6
